# In patent US11076594B2, “Pyrazolone compound or salt thereof, preparation method therefor, herbicide composition and use thereof” (QINGDAO KINGAGROOT CHEMICAL COMPOUNDS CO., LTD., priority 2015, dated 2021):
# Experiments:
# Format in all cases: in vivo
# [1] = system: rice; experiment: post-emergence stage experiment, crop (Table 1); conditions: post-emergence spray at 4-5 leaf stage, 250 g/ha active ingredient with 450 kg/ha water, rated after 3 weeks in greenhouse
# How it was run: (§1)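 Greenhouse pot test; foliar spray at 4-5 leaf stage; acetone + Tween 80 + water formulation; 3 wk post-treatment fresh-weight control rate.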
# [2] = system: rorippa indica; experiment: weed control effect in post-emergence stage (Table 1); set-up: key: Level 10: completely dead; Level 9: above 95% growth control rate; Level 8: above 90% growth control rate; Level 7: above 80% growth control rate; Level 6: above 70% growth control rate; Level 5: above 60% growth control rate; Level 4: above 50% growth control rate; Level 3: above 20% growth control rate; Level 2: 5%-20% growth control rate; Level 1: below 5% growth control rate; conditions: post-emergence spray at 4-5 leaf stage, 250 g/ha active ingredient with 450 kg/ha water, rated after 3 weeks in greenhouse
# How it was run: as §1
# [3] = system: foxtail; experiment: as above; set-up: key: Level 10: completely dead; Level 9: above 95% growth control rate; Level 8: above 90% growth control rate; Level 7: above 80% growth control rate; Level 6: above 70% growth control rate; Level 5: above 60% growth control rate; Level 4: above 50% growth control rate; Level 3: above 20% growth control rate; Level 2: 5%-20% growth control rate; Level 1: below 5% growth control rate; conditions: post-emergence spray at 4-5 leaf stage, 250 g/ha active ingredient with 450 kg/ha water, rated after 3 weeks in greenhouse
# How it was run: as §1
# [4] = system: bidens bipinnata; experiment: as above; set-up: key: Level 10: completely dead; Level 9: above 95% growth control rate; Level 8: above 90% growth control rate; Level 7: above 80% growth control rate; Level 6: above 70% growth control rate; Level 5: above 60% growth control rate; Level 4: above 50% growth control rate; Level 3: above 20% growth control rate; Level 2: 5%-20% growth control rate; Level 1: below 5% growth control rate; conditions: post-emergence spray at 4-5 leaf stage, 250 g/ha active ingredient with 450 kg/ha water, rated after 3 weeks in greenhouse
# How it was run: as §1
# [5] = system: crab grass; experiment: as above; set-up: key: Level 10: completely dead; Level 9: above 95% growth control rate; Level 8: above 90% growth control rate; Level 7: above 80% growth control rate; Level 6: above 70% growth control rate; Level 5: above 60% growth control rate; Level 4: above 50% growth control rate; Level 3: above 20% growth control rate; Level 2: 5%-20% growth control rate; Level 1: below 5% growth control rate; conditions: post-emergence spray at 4-5 leaf stage, 250 g/ha active ingredient with 450 kg/ha water, rated after 3 weeks in greenhouse
# How it was run: as §1
# [6] = system: Indian mallow; experiment: as above; set-up: key: Level 10: completely dead; Level 9: above 95% growth control rate; Level 8: above 90% growth control rate; Level 7: above 80% growth control rate; Level 6: above 70% growth control rate; Level 5: above 60% growth control rate; Level 4: above 50% growth control rate; Level 3: above 20% growth control rate; Level 2: 5%-20% growth control rate; Level 1: below 5% growth control rate; conditions: post-emergence spray at 4-5 leaf stage, 250 g/ha active ingredient with 450 kg/ha water, rated after 3 weeks in greenhouse
# How it was run: as §1
# [7] = system: echinochloa; experiment: as above; set-up: key: Level 10: completely dead; Level 9: above 95% growth control rate; Level 8: above 90% growth control rate; Level 7: above 80% growth control rate; Level 6: above 70% growth control rate; Level 5: above 60% growth control rate; Level 4: above 50% growth control rate; Level 3: above 20% growth control rate; Level 2: 5%-20% growth control rate; Level 1: below 5% growth control rate; conditions: post-emergence spray at 4-5 leaf stage, 250 g/ha active ingredient with 450 kg/ha water, rated after 3 weeks in greenhouse
# How it was run: as §1
# [8] = system: corn gromwell; experiment: wheat field resistant broadleaf weed control, greenhouse spray at 4 leaf stage; set-up: key: Level 10: completely dead; Level 9: above 95% growth control rate; Level 8: above 90% growth control rate; Level 7: above 80% growth control rate; Level 6: above 70% growth control rate; Level 5: above 60% growth control rate; Level 4: above 50% growth control rate; Level 3: above 20% growth control rate; Level 2: 5%-20% growth control rate; Level 1: below 5% growth control rate; conditions: 250 g/ha of the active substance; 4 weeks after treatment; ALS inhibitor resistant
# Procedure: (§2) The activity level standard of harmful plant destruction (i.e. growth control rate) is as follows:
# (§3) The above described growth control rate is fresh weight control rate.
# (§4) The seeds of alopecurus japonicas, flixweed, shepherd's purse, corn gromwell, chickweed, beckmannia syzigachne, and annual ryegrass and wheat seeds were put into a plastic pot loaded with soil, and then covered with 0.5-2 cm soil, the seeds were allowed to grow in good greenhouse environment. The test plants were treated at 4 leaf stage 2-3 weeks after sowing. The test compounds of the present invention were dissolved in acetone respectively, then added with methyl oleate emulsion and diluted by certain amount of water to certain concentration. The solution was sprayed to the plant with a sprayer. Then the plants were cultured for 4 weeks in greenhouse.
# [9] = system: shepherd's purse; experiment: as above; set-up: key: Level 10: completely dead; Level 9: above 95% growth control rate; Level 8: above 90% growth control rate; Level 7: above 80% growth control rate; Level 6: above 70% growth control rate; Level 5: above 60% growth control rate; Level 4: above 50% growth control rate; Level 3: above 20% growth control rate; Level 2: 5%-20% growth control rate; Level 1: below 5% growth control rate; conditions: 250 g/ha of the active substance; 4 weeks after treatment; ALS inhibitor resistant
# Procedure: as §2, §3, §4
# [10] = system: flixweed; experiment: as above; set-up: key: Level 10: completely dead; Level 9: above 95% growth control rate; Level 8: above 90% growth control rate; Level 7: above 80% growth control rate; Level 6: above 70% growth control rate; Level 5: above 60% growth control rate; Level 4: above 50% growth control rate; Level 3: above 20% growth control rate; Level 2: 5%-20% growth control rate; Level 1: below 5% growth control rate; conditions: 250 g/ha of the active substance; 4 weeks after treatment; ALS inhibitor resistant
# Procedure: as §2, §3, §4
# [11] = system: chickweed; experiment: as above; set-up: key: Level 10: completely dead; Level 9: above 95% growth control rate; Level 8: above 90% growth control rate; Level 7: above 80% growth control rate; Level 6: above 70% growth control rate; Level 5: above 60% growth control rate; Level 4: above 50% growth control rate; Level 3: above 20% growth control rate; Level 2: 5%-20% growth control rate; Level 1: below 5% growth control rate; conditions: 250 g/ha of the active substance; 4 weeks after treatment; ALS inhibitor resistant
# Procedure: as §2, §3, §4
# [12] = system: corn; experiment: post-emergence stage experiment, crop (Table 1); conditions: post-emergence spray at 4-5 leaf stage, 250 g/ha active ingredient with 450 kg/ha water, rated after 3 weeks in greenhouse
# How it was run: as §1
# [13] = system: wheat; experiment: post-emergence stage experiment, crop (Table 1); conditions: post-emergence spray at 4-5 leaf stage, 250 g/ha active ingredient with 450 kg/ha water, rated after 3 weeks in greenhouse
# How it was run: as §1
# [14] = system: wheat; experiment: wheat field test, crop selectivity, greenhouse spray at 4 leaf stage; conditions: 250 g/ha of the active substance; 4 weeks after treatment
# How it was run: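 Read-out: fresh weight control rate, scored 4 weeks after a post-emergence spray. Treatment at 4 leaf stage (2-3 weeks after sowing); compound dissolved in acetone, with methyl oleate emulsion, diluted with water.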
Structure (SMILES),"effect on crop, Rice (level) [1]","weed control effect, Rorippa indica (level) [2]","weed control effect, Green foxtail (level) [3]","weed control effect, Bidens bipinnata (level) [4]","weed control effect, Crab grass (level) [5]","weed control effect, Indian mallow (level) [6]","weed control effect, Echinochloa (level) [7]",corn gromwell weed controlling effect (activity level) [8],shepherd's purse weed controlling effect (activity level) [9],flixweed weed controlling effect (activity level) [10],chickweed weed controlling effect (activity level) [11],"effect on crop, Corn (level) [12]","effect on crop, Wheat (level) [13]","Wheat (activity level, crop damage) [14]"
Cn1cc(C(=O)Oc2c(C(=O)c3ccc(C(F)(F)F)c(N4CCCC4=O)c3Cl)c(C3CC3)nn2C)cn1 [Compound 028],1 (Level 1: below 5% growth control rate),10,1 (Level 1: below 5% growth control rate),7 (Level 7: above 80% growth control rate),4 (Level 4: above 50% growth control rate),10,5 (Level 5: above 60% growth control rate),10,10,10,10,1 (Level 1: below 5% growth control rate),0,0
CCOc1c(C(=O)Oc2c(C(=O)c3ccc(C(F)(F)F)c(N4CCCCCC4=O)c3Cl)cnn2C)cnn1C [Compound 051],1 (Level 1: below 5% growth control rate),10,0,2 (Level 2: 5%-20% growth control rate),5 (Level 5: above 60% growth control rate),10,6 (Level 6: above 70% growth control rate),10,10,10,10,2 (Level 2: 5%-20% growth control rate),0,0
Cc1nn(C)cc1C(=O)Oc1c(C(=O)c2ccc(C(F)(F)F)c(N3CCCCCC3=O)c2Cl)cnn1C [Compound 052],1 (Level 1: below 5% growth control rate),10,1 (Level 1: below 5% growth control rate),1 (Level 1: below 5% growth control rate),4 (Level 4: above 50% growth control rate),10,5 (Level 5: above 60% growth control rate),10,10,10,10,1 (Level 1: below 5% growth control rate),0,0
Cc1cnn(-c2c(C(F)(F)F)ccc(C(=O)c3c(C)nn(C)c3OC(=O)c3cn(C)nc3C)c2Cl)c1 [Compound 088],,10,10,4 (Level 4: above 50% growth control rate),9 (Level 9: above 95% growth control rate),10,10,10,10,10,10,0,0,0
Cc1cnn(-c2c(C(F)(F)F)ccc(C(=O)c3c(C4CC4)nn(C)c3OC(=O)c3cn(C)nc3C)c2Cl)c1 [Compound 090],2 (Level 2: 5%-20% growth control rate),10,2 (Level 2: 5%-20% growth control rate),,1 (Level 1: below 5% growth control rate),10,6 (Level 6: above 70% growth control rate),10,10,10,10,1 (Level 1: below 5% growth control rate),0,0
